In US5368707A, “Convenient determination of trace lead in whole blood and other fluids” (priority 1993, dated 1994):

Tests used:
isocitrate dehydrogenase [1] = target: T1, isocitrate dehydrogenase (Sus scrofa, UniProt P33198); assay: ICDH inhibition by lead in the presence of EDTA with or without CoSO4 (Example 8); type: biochemical, pig; conditions: 2 mM EDTA; for Inhibition: 2.5 mM CoSO4
T1 construct: purchased Sigma, St. Louis, Mo; ICD Type VI
T1 sequence (P33198 9-421): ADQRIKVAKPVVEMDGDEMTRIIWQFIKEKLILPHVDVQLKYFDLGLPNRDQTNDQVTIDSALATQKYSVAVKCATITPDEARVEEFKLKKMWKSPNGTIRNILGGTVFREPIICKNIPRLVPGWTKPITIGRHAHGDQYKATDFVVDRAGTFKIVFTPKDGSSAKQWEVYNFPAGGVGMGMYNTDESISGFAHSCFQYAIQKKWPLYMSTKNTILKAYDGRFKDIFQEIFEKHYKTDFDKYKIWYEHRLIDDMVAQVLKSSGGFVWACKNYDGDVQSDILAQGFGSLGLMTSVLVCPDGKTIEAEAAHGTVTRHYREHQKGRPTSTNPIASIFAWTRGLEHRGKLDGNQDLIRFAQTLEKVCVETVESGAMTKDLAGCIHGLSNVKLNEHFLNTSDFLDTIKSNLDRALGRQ
From the text: A major problem in the measurement of lead in blood is the interference by various blood proteins and, as in the majority of clinical samples, the presence of excess amounts of EDTA. The inventors have discovered that lead chelated with EDTA is exchangeable with cobalt(II). As shown in this example, lead Pb(II) is displaced from EDTA by cobalt(II) and detected by its inhibition of isocitrate dehydrogenase (ICDH).
Micromolor concentrations of lead were detected by ICDH inhibition in the presence of 2 mM EDTA and 2.5 mM CoSO4.

isocitrate dehydrogenase [2] = target: T1, isocitrate dehydrogenase; assay: Amperometric ICDH activity with lead-containing whole blood samples; type: biochemical, pig
From the text: The present invention concerns approaches to and methods for determining lead ion levels in whole blood. […] Isocitrate dehydrogenase for example is inhibited by lead. […] This is likely due to binding of lead by blood proteins such as albumin or other proteins, although it is also possible that the enzyme is stabilized by an unidentified blood component.

isocitrate dehydrogenase [3] = target: T1, isocitrate dehydrogenase; assay: Effect of temperature on lead inhibition of isocitrate dehydrogenase (Example 9); type: biochemical, pig; conditions: for Inhibition rate: 4 μM lead, 10 nM enzyme, 15 min; for inhibition rates: lead concentration not printed at this place
Protocol: The activity of isocitrate dehydrogenase and its response is affected by several factors.
A solution of isocitrate dehydrogenase (10 nM) was incubated for 15 min at various temperatures between 18° C. and 37° C. and rate of lead inhibition measured. Inhibition rates increased approximately linearly from about 25% to 85% at a lead concentration of 4 μM (FIG. 5).

isocitrate dehydrogenase [4] = target: T1, isocitrate dehydrogenase; assay: Effect of pH on inhibition of isocitrate dehydrogenase by lead ion (Example 7); type: biochemical, pig; conditions: for Current / Inhibition: 1.0 U/mL enzyme, 50 mM Tris
Protocol: (§1) The inventors have shown that less than 1 μg/dL of lead in solution may be measured employing the enzyme isocitrate dehydrogenase. The measurements are sensitive to several factors, including pH, enzyme concentration, co-factor concentration and temperature. The following example illustrates the effect of pH on enzyme inhibition.
Inhibition of the enzyme isocitrate dehydrogenase was calculated based on the amperometric signal (I) which is the mediator oxidation current measured with a glassy carbon electrode at an applied potential of +100 mV. Inhibition was determined as (Iuninhibited -Iinhibited)/Iuninhibited. 50 mM Tris buffer at various pH values as shown in Table 2 was used with 1.0 U/mL enzyme in the solution.

Horseradish peroxidase = conditions: Guilbault, et al., 1968; cited from earlier work
isocitrate dehydrogenase [5] = target: T1, isocitrate dehydrogenase; assay: Sensitivity of isocitrate dehydrogenase to lead ion (detection level); type: biochemical, pig
Protocol: Pig heart NADP-linked isocitric dehydrogenase (ICD, EC 1.1.1.42), an oxidoreductase, is sensitive to trace levels of lead ion as low as 1 μg/dl. […] In fact, at low concentrations of activator, e.g., <200 ppb Mn^++, the activity of ICD is proportional to Mn^++ and may be used to determine activator concentration (Guilbault, 1970). Inactivation by inhibitors is useful for determining inhibitor concentration. Specificity of enzymes for activators, or inhibitors, is not as great as for the natural substrate of the enzyme, but in some cases inhibitor concentration may be selectively determined. Silver and mercury have been determined in the presence of each other using isocitrate dehydrogenase (Mealor and Townshend, 1968). However, until now, there has been no satisfactory rapid amperometric method to determine lead ion based on ICD inhibition, much less a simple method to determine low lead ion concentrations in whole blood.
The inventors have developed a highly sensitive method for the determination of lead ion in solution. Isocitrate dehydrogenase, under specific conditions, may be employed in an assay to quantitatively determine lead ion in the range 0-30 μg per deciliter of solution. Assay sensitivity can be adjusted to a desired concentration range for lead by altering one or more of several parameters such as the concentration of isocitric dehydrogenase. Lower enzyme concentrations increase sensitivity to lead ion.
as §1

## [Pb+2] [lead ion]
Isocitrate dehydrogenase [1]; 12 μM lead
  Inhibition: 23%
Isocitrate dehydrogenase [1]; 36 μM lead
  Inhibition: 32%
Isocitrate dehydrogenase [1]; 121 μM lead
  Inhibition: 47%
Isocitrate dehydrogenase [1]; absence of CoSO4
  Inhibition (in words): no inhibition was observed
Isocitrate dehydrogenase [2]
  inhibition of isocitrate dehydrogenase activity: do not detectably inhibit isocitrate dehydrogenase activity
Isocitrate dehydrogenase [3]; 18° C.
  Inhibition rate: about 25%
  inhibition rates: 25%
Isocitrate dehydrogenase [3]; 37° C.
  Inhibition rate: ~85%
  inhibition rates: about 85%
Isocitrate dehydrogenase [4]; pH 7.5, 5.5 μg/dL Pb
  Current: 749 nA
  Inhibition: 0%
Isocitrate dehydrogenase [4]; pH 7.5, 11.1 μg/dL Pb
  Current: 754 nA
  Inhibition: 0%
Isocitrate dehydrogenase [4]; pH 7.5, 16.6 μg/dL Pb
  Current: 760 nA
  Inhibition: -1%
Isocitrate dehydrogenase [4]; pH 7.5, 22.1 μg/dL Pb
  Current: 750 nA
  Inhibition: 0%
Isocitrate dehydrogenase [4]; pH 7.5, 27.6 μg/dL Pb
  Current: 761 nA
  Inhibition: -1%
Isocitrate dehydrogenase [4]; pH 7.5, 27.6 μg/dL lead
  Inhibition (in words): no significant inhibition
Isocitrate dehydrogenase [4]; pH 7.5, up to about 28 mg per deciliter lead (so in the source)
  Inhibition (in words): very little if any inhibition
Isocitrate dehydrogenase [4]; pH 8.0, 5.5 μg/dL Pb
  Current: 673 nA
  Inhibition: 6%
Isocitrate dehydrogenase [4]; pH 8.0, 11.1 μg/dL Pb
  Current: 613 nA
  Inhibition: 14%
Isocitrate dehydrogenase [4]; pH 8.0, 16.6 μg/dL Pb
  Current: 532 nA
  Inhibition: 25%
Isocitrate dehydrogenase [4]; pH 8.0, 22.1 μg/dL Pb
  Current: 439 nA
  Inhibition: 38%
Isocitrate dehydrogenase [4]; pH 8.0, 27.6 μg/dL Pb
  Current: 303 nA
  Inhibition: 58%
Isocitrate dehydrogenase [4]; pH 8, up to about 28 mg per deciliter lead (so in the source)
  enzyme inhibition: about 60%
Isocitrate dehydrogenase [4]; pH 8.5, 5.5 μg/dL Pb
  Current: 636 nA
  Inhibition: 18%
Isocitrate dehydrogenase [4]; pH 8.5, 11.1 μg/dL Pb
  Current: 522 nA
  Inhibition: 33%
Isocitrate dehydrogenase [4]; pH 8.5, 16.6 μg/dL Pb
  Current: 406 nA
  Inhibition: less than 50%
Isocitrate dehydrogenase [4]; pH 8.5, 16.6 μg/dL Pb, listed as Lead ion
  Inhibition: 48%
Isocitrate dehydrogenase [4]; pH 8.5, 22.1 μg/dL Pb
  Current: 241 nA
  Inhibition: 69%
Isocitrate dehydrogenase [4]; pH 8.5, 27.6 μg/dL Pb
  Current: 99 nA
Isocitrate dehydrogenase [4]; pH 8.5, 27.6 μg/dL Pb, listed as Lead ion
  Inhibition: 87%
Isocitrate dehydrogenase [4]; pH 8.5, 27.6 μg/dL Pb, listed as lead
  Inhibition: approximately 87%
Isocitrate dehydrogenase [4]; pH 8.5, up to about 28 mg per deciliter lead (so in the source)
  enzyme inhibition: about 90%
Isocitrate dehydrogenase [4]; pH 9.0, 5.5 μg/dL Pb
  Current: 4 nA
  Inhibition: 99%
Isocitrate dehydrogenase [4]; pH 9.0, 11.1 μg/dL Pb
  Current: 21 nA
  Inhibition: 98%
Isocitrate dehydrogenase [4]; pH 9.0, between 0 and 5.5 mg per deciliter lead (so in the source)
  Inhibition (in words): complete inhibition
Isocitrate dehydrogenase [4]; pH 9.0, up to 5.5 μg/dL lead
  Inhibition (in words): completely inhibited
Horseradish peroxidase
  linear range of peroxidase inhibition: 10 to 185 µg/mL
Isocitrate dehydrogenase [5]
  reversibility of binding to ICDH: binds irreversibly to the enzyme
Isocitrate dehydrogenase [5]; ICDH inhibition
  detectable lead ion level: ~1 µg/dL
Isocitrate dehydrogenase [5]; isocitrate dehydrogenase assay, in solution
  quantitatively determinable lead range: 0-30 μg per deciliter
